These results are taken from paper PMC10385989, “Evaluation of the Ability of PAMPA Membranes to Emulate Biological Processes through the Abraham Solvation Parameter Model” (Membranes, 2023).

For one data set the following is noted: cited from earlier work.
For the compound `CCC1(c2ccccc2)C(=O)NC(=O)NC1=O` [5-ethyl-5-phenylbarbituric acid], the “log P0 (permeability, PAMPA-IPM)” value is -5.15. Regarding `CN1CCC[C@H]1c1cccnc1` [nicotine], the “log P0 (permeability, PAMPA-IPM)” value was -4.58. `Oc1ccccc1` [phenol]: the “log P0 (permeability, PAMPA-IPM)” value is recorded as -4.14.

The conditions of another data set: pH 7.4.
Description: First, the top part of the skin-PAMPA (PAMPA-Certramide) sandwich, which contains the membrane, was hydrated overnight with the hydration solution. Different buffer solutions at pH 3, 4, 5, 6, 7, and 7.4 were prepared to solve the samples. To prepare them, 25 mL of concentrated PRISMA HTTM was diluted to 1 L with water, and 0.5 M NaOH was added to obtain the desired pH. Above pH 8, the skin-PAMPA membrane becomes degraded [40], so pH 7.4 was the highest pH used in the present work. In order to measure the intrinsic permeability, each sample was dissolved in the buffer solution with a pH that ensured the presence of the neutral form. […] In all instances, the pH of the acceptor compartment was 7.4.
A total of 180 µL of sample solution was placed in the donor compartment, and 200 µL of pH 7.4 buffer was placed in the acceptor compartment.
According to previous studies, in which the conditions in the skin-PAMPA measurements were optimized [40], the skin-PAMPA sandwich was incubated at 32 °C for 4 h. Afterwards, the concentration of the compounds was measured in both the donor and the acceptor plates. Additionally, the initial sample solution was quantified. […] The injection volume was 5 μL, and 3 to 5 replicate measurements were performed per compound. Every well-plate contained only one compound.
When the pH is different on the two sides of the membrane, a gradient-pH is created and the permeation of ionizable molecules can be altered. This gradient-pH implies two different permeability coefficients, one on each direction of the membrane, denoted by the subscript (D→A) or (A→D). Equation (5) has two unknowns, Pe(A→D) and Pe(D→A), so an iterative method has to be used to solve it. To this purpose, two different experiments were carried out for each compound, one with a gradient-pH and the other with an iso-pH, that is, the same pH in both compartments (7.4). For the iso-pH, Pe(A→D) = Pe(D→A).
Finally, Equation (5) was iteratively solved for Pe(D→A). Initially, ra was assumed to be rv, but the ra value was improved after each iteration by using the newly obtained Pe(D→A). The process continued until self-consistency was reached within the precision required (0.001). The Solver tool in Microsoft Excel was used for the iterative process.
In the donor compartment, a pH was used in which the compound was in its neutral form, whereas in the acceptor compartment, the buffer was at pH 7.4.
On to `COC(=O)Cc1ccc(O)cc1` [4-hydroxymethyl phenylacetate], for which the “log P0 (intrinsic permeability, PAMPA-Certramide)” value was -5.07. Still for that read-out and setting: next, `CCC1(CC)C(=O)NC(=O)NC1=O` [5,5-diethylbarbituric acid (barbital), 5,5-diethylbarbituric acid]: -5.75; `CCC1(c2ccccc2)C(=O)NC(=O)NC1=O` [5-ethyl-5-phenylbarbituric acid]: -6.05; `Nc1ccccc1` [aniline]: -4.55. As to `CCNc1nc(Cl)nc(NC(C)C)n1` [atrazine], the “log P0 (intrinsic permeability, PAMPA-Certramide)” value was -4.67. Regarding `C[C@]12CCC(=O)C=C1CC[C@@H]1[C@@H]2CC[C@@]2(C)[C@H]1CC[C@]2(O)C(=O)CO` [corteloxone], the “log P0 (intrinsic permeability, PAMPA-Certramide)” value was -5.45. Regarding `CC(=O)[C@@]1(O)CC[C@H]2[C@@H]3CCC4=CC(=O)CC[C@]4(C)[C@H]3CC[C@@]21C` [hydroxiprogesterone], the “log P0 (intrinsic permeability, PAMPA-Certramide)” value was -4.70. Same read-out and setting: next, `COc1ccccc1` [methyl phenyl ether]: -4.34; `CC(=O)CC(c1ccccc1)c1c(O)c2ccccc2oc1=O` (stereo not drawn) [warfarin]: -4.63.
